Measurements as given in ChEMBL document CHEMBL5291721, “A preclinical secondary pharmacology resource illuminates target-adverse drug reaction associations of marketed drugs” (Nat Commun, 2023).

Key:
[1] = target: T1, Alpha-1A adrenergic receptor (Homo sapiens, UniProt P35348); format: functional, cell-based
T1 sequence (P35348 whole entry): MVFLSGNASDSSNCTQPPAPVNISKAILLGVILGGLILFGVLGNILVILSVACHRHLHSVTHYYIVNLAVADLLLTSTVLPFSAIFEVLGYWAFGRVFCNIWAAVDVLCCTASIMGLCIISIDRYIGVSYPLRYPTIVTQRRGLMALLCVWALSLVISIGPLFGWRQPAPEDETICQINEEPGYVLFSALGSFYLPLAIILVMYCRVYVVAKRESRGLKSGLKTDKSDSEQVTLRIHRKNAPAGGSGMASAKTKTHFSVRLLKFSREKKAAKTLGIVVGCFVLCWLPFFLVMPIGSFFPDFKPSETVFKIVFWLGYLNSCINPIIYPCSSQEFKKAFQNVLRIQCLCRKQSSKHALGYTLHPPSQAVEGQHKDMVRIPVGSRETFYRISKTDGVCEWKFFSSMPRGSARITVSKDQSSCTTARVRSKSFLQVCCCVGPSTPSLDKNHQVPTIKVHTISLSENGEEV

[2] = target: T2, Alpha-2C adrenergic receptor (Homo sapiens, UniProt P18825); format: functional
T2 sequence (P18825 whole entry): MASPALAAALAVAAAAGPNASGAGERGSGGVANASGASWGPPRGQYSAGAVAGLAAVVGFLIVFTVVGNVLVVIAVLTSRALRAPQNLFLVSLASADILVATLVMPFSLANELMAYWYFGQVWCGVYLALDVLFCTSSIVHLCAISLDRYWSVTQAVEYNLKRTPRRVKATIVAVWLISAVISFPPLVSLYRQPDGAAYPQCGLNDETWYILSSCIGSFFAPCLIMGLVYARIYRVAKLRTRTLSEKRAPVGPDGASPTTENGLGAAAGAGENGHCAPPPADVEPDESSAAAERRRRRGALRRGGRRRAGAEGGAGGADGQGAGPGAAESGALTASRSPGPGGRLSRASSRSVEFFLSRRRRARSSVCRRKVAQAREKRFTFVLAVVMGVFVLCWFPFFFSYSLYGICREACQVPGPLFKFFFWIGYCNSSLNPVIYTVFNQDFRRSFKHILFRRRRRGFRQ

[3] = target: T3, 5-hydroxytryptamine receptor 2C (Homo sapiens, UniProt P28335)
T3 sequence (P28335 whole entry): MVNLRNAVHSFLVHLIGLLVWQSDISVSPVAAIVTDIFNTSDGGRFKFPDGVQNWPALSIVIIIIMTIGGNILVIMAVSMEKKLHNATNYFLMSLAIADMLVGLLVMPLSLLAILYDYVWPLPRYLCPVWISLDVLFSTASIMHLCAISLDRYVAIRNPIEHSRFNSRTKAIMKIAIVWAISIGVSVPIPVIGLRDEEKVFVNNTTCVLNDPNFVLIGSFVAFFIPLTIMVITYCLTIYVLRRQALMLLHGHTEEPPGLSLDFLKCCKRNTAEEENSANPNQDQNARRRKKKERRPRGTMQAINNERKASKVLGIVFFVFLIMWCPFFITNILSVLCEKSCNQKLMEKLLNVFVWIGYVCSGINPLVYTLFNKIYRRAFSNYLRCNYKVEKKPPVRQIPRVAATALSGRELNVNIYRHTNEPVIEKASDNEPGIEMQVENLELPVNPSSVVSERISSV

[4] = target: cGMP-inhibited 3',5'-cyclic phosphodiesterase 3A (Homo sapiens, UniProt Q14432); format: functional
cGMP-inhibited 3',5'-cyclic phosphodiesterase 3A, sequence (Q14432 whole entry): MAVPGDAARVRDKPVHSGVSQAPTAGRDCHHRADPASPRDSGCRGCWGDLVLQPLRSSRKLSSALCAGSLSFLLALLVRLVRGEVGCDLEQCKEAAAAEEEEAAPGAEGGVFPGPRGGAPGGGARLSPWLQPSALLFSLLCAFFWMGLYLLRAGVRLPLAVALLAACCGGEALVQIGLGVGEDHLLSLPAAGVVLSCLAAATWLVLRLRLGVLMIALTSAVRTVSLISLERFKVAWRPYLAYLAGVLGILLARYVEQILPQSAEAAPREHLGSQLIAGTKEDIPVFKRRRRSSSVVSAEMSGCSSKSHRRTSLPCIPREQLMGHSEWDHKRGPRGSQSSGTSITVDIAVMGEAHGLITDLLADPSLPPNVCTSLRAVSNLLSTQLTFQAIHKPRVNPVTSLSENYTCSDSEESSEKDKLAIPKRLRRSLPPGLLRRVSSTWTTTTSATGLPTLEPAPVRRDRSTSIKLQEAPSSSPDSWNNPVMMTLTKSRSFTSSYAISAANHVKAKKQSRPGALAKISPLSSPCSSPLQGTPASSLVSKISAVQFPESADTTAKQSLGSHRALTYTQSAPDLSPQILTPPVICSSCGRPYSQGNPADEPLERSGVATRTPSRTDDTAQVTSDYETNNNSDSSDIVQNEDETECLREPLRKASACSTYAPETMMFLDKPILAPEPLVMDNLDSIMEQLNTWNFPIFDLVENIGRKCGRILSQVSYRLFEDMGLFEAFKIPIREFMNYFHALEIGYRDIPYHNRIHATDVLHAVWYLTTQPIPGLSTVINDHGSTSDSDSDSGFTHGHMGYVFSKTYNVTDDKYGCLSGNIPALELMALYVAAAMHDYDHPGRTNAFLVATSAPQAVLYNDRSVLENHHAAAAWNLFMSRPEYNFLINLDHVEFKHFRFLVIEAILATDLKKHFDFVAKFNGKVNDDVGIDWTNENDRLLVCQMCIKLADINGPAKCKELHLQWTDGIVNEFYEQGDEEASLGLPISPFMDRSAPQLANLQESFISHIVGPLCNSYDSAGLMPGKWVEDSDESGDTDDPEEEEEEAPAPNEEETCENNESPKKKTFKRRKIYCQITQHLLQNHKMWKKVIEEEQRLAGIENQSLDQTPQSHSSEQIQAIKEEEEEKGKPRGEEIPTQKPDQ

Endothelin-1 receptor = target: T4, Endothelin-1 receptor (Homo sapiens, UniProt P25101)
T4 sequence (P25101 whole entry): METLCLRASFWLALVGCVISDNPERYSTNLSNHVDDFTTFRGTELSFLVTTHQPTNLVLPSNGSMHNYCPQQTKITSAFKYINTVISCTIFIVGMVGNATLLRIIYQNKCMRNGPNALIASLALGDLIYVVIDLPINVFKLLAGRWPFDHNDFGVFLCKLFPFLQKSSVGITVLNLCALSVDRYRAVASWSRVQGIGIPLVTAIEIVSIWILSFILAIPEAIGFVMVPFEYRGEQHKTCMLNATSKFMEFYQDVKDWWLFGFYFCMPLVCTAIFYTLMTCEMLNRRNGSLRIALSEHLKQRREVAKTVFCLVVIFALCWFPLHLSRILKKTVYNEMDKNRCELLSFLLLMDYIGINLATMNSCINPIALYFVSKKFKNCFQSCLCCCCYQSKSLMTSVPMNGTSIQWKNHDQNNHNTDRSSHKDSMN

[5] = target: Glutamate receptor ionotropic, NMDA 1 (Rattus norvegicus, UniProt P35439)
B2 bradykinin receptor = target: T5, B2 bradykinin receptor (Homo sapiens, UniProt P30411)
T5 sequence (P30411 whole entry): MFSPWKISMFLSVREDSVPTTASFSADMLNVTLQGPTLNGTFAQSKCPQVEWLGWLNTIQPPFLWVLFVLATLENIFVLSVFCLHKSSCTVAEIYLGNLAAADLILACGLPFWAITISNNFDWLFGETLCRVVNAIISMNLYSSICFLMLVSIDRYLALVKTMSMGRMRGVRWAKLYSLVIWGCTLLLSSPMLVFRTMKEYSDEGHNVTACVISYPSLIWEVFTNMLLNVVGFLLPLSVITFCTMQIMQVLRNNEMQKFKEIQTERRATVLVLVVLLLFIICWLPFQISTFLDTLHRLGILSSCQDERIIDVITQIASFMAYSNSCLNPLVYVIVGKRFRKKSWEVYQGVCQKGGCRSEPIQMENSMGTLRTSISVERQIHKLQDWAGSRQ

Vasopressin V1a receptor = Vasopressin V1a receptor (Homo sapiens, UniProt P37288)
Vasopressin V1a receptor, sequence (P37288 whole entry): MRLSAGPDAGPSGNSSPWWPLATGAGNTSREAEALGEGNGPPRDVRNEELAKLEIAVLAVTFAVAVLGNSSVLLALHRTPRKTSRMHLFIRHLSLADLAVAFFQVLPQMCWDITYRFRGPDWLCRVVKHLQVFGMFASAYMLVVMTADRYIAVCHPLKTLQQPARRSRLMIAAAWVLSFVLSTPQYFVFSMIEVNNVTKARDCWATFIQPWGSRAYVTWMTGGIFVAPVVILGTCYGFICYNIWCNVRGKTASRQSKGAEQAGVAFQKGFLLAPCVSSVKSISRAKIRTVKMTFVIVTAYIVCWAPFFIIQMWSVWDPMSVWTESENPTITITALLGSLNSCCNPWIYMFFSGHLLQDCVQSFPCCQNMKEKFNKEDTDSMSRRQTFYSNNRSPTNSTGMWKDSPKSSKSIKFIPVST

[6] = target: Muscarinic acetylcholine receptor M3 (Homo sapiens, UniProt P20309)
Muscarinic acetylcholine receptor M3, sequence (P20309 whole entry): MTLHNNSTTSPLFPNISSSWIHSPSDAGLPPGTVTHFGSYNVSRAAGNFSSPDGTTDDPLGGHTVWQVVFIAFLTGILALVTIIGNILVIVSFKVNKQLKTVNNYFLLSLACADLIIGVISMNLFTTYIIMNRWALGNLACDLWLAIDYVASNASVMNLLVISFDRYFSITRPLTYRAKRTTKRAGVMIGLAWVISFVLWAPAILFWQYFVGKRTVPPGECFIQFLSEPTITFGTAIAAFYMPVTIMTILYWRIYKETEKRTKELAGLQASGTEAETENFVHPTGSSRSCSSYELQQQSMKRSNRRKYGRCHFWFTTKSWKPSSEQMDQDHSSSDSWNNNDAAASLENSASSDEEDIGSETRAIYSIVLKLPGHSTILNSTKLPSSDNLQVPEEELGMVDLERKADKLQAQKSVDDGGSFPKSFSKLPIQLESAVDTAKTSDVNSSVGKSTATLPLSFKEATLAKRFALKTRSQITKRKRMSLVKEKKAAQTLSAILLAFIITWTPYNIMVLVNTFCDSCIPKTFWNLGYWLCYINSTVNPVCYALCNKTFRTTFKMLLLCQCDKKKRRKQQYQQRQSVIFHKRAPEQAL

Histamine H2 receptor = Histamine H2 receptor (Homo sapiens, UniProt P25021); format: functional, cell-based
Histamine H2 receptor, sequence (P25021 whole entry): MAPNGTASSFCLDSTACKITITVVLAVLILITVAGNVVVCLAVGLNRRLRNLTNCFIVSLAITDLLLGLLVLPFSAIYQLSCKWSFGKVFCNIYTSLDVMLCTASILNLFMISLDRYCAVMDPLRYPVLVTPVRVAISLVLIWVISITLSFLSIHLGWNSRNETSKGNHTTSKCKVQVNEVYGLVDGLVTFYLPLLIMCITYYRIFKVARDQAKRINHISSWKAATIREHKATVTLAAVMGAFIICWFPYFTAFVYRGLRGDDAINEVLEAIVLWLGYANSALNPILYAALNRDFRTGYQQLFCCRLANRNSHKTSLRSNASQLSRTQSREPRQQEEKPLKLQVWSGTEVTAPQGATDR

Adenosine receptor A3 = target: T6, Adenosine receptor A3 (Homo sapiens, UniProt P0DMS8)
T6 sequence (P0DMS8 whole entry): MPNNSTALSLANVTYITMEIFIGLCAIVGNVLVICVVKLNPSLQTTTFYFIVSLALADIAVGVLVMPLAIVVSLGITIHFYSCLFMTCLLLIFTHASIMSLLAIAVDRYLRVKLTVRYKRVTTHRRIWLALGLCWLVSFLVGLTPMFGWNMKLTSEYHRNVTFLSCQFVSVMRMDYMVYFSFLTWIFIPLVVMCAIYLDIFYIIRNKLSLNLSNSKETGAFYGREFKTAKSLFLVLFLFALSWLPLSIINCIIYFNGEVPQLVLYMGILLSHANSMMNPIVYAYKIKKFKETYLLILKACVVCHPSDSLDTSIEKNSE
Further: assay procedure not described here.

Row | Compound | AC50 [1] | AC50 [2] | AC50 [3] | AC50 [4] | AC50 (Endothelin-1 receptor) | AC50 [5] | AC50 (B2 bradykinin receptor) | AC50 (Vasopressin V1a receptor) | AC50 [6] | AC50 (Histamine H2 receptor) | AC50 (Adenosine receptor A3)
1 | COc1ccc(-n2nc(C(N)=O)c3c2C(=O)N(c2ccc(N4CCCCC4=O)cc2)CC3)cc1 [APIXABAN] | > 30 µM | > 30 µM | > 30 µM | > 30 µM | > 30 µM | > 30 µM | > 30 µM | > 30 µM | > 30 µM | > 30 µM | > 30 µM
2 | COc1ccc2c3c1O[C@H]1C(=O)CC[C@H]4[C@@H](C2)N(C)CC[C@]314 [HYDROCODONE] | > 30 µM | > 10 µM | > 30 µM | > 30 µM | > 30 µM | > 10 µM | > 30 µM | > 10 µM | > 10 µM | > 10 µM | > 30 µM
3 | CN1C(=O)CN=C(c2ccccc2F)c2cc([N+](=O)[O-])ccc21 [FLUNITRAZEPAM] | > 30 µM | > 10 µM | > 30 µM | > 30 µM | > 30 µM | > 10 µM | > 30 µM | > 10 µM | > 30 µM | > 10 µM | > 30 µM
4 | CC1NCCOC1c1ccccc1 (stereo unspecified) [PHENMETRAZINE] |  | > 10 µM | > 30 µM | > 30 µM | > 30 µM | > 10 µM | > 30 µM | > 30 µM | > 30 µM | > 10 µM | > 30 µM
5 | CCN1C(=O)NC(c2ccccc2)C1=O (stereo unspecified) [ETHOTOIN] | > 30 µM | > 30 µM | > 30 µM | > 30 µM | > 30 µM | > 30 µM | > 30 µM | > 30 µM | > 30 µM | > 30 µM | 12 µM
6 | CO/N=C(\C(=O)N[C@@H]1C(=O)N2C(C(=O)[O-])=C(C[n+]3ccc(N)n3CCO)CS[C@H]12)c1csc(N)n1 [CEFOSELIS] | 30 µM | > 30 µM | > 30 µM | > 30 µM | > 30 µM | > 30 µM | > 30 µM | > 30 µM | > 30 µM | > 30 µM | > 30 µM
7 | CCCO[C@H]1[C@@H]([C@@H](COCc2ccc(Cl)cc2)OCc2ccc(Cl)cc2)OC(OCC)[C@@H]1O (stereo partly specified) [CLOBENOSIDE] | > 30 µM | > 30 µM | > 30 µM | > 30 µM | > 30 µM | > 30 µM | > 30 µM | > 30 µM | > 30 µM | > 30 µM | 20 µM
8 | CCC(=O)O[C@H](CC(=O)O)C[N+](C)(C)C [LEVOCARNITINE PROPIONATE] |  | > 30 µM | > 30 µM | > 30 µM | > 30 µM | > 30 µM | > 30 µM | > 30 µM | > 30 µM | > 30 µM | > 30 µM
9 | CCC(NC(C)C)C(O)c1ccc(O)c(O)c1 (stereo unspecified) [ISOETHARINE] |  | > 30 µM | > 30 µM | > 30 µM | > 30 µM | > 30 µM | > 30 µM | > 30 µM | > 30 µM | > 30 µM | > 30 µM
10 | CC1=C(C(=O)O)N2C(=O)[C@@H](NC(=O)[C@H](N)C3=CCC=CC3)[C@H]2SC1 [CEPHRADINE] |  | > 30 µM | > 30 µM | > 30 µM | > 30 µM | > 30 µM | > 10 µM | > 30 µM | > 30 µM | > 30 µM | 27 µM
11 | CCOC(=O)C1=C(C)NC(C)=C(C(=O)OC)C1c1cccc(Cl)c1Cl (stereo unspecified) [FELODIPINE] | > 30 µM | > 10 µM | > 10 µM | > 30 µM | > 30 µM | > 10 µM | > 30 µM | > 10 µM |  | > 10 µM | 7.91 µM
12 | NS(=O)(=O)c1ccc(N2CCCCS2(=O)=O)cc1 |  | > 30 µM | > 30 µM | > 30 µM | > 30 µM | > 30 µM | > 30 µM | > 30 µM | > 30 µM | > 30 µM | > 30 µM
13 | CCCCC[C@H](O)CC[C@@H]1[C@H]2Cc3cccc(OCC(=O)O)c3C[C@H]2C[C@H]1O [TREPROSTINIL] | > 30 µM | > 30 µM |  | > 30 µM | > 30 µM | > 30 µM | > 30 µM | > 30 µM | > 30 µM | > 30 µM | > 30 µM
14 | Cc1nnc2n1-c1ccc(Cl)cc1C(c1ccccc1)=NC2 [ALPRAZOLAM] | > 30 µM | > 10 µM | > 30 µM | > 30 µM | > 30 µM | > 10 µM | > 30 µM | > 10 µM |  | > 10 µM | > 30 µM
15 | CCCCOC(=O)C(=O)Nc1cccc(-c2nnn[nH]2)c1 [TAZANOLAST] | > 30 µM | > 30 µM |  | > 30 µM | > 30 µM | > 30 µM | > 30 µM | > 30 µM | > 30 µM | > 30 µM | > 30 µM
16 | CC1=C(CC(=O)O)c2cc(F)ccc2/C1=C\c1ccc([S+](C)[O-])cc1 (stereo unspecified) | > 30 µM | > 10 µM | > 30 µM | > 30 µM | > 30 µM | > 10 µM | > 30 µM | > 30 µM |  | > 10 µM | > 30 µM
